The values below come from PMC11290853, “Cholesterol-dependent dynamic changes in the conformation of the type 1 cholecystokinin receptor affect ligand binding and G protein coupling” (PLOS Biology, 2024).

Changes are numbered by the printed parent chain.

For one test, the target named is T1, CCK2R WT (Homo sapiens, UniProt P32239).
T1 construct: expressed in transfected cells; some KO cells re-transfected with Galphaq or Galpha11), receptor-enriched membranes
T1 sequence (P32239 1-447): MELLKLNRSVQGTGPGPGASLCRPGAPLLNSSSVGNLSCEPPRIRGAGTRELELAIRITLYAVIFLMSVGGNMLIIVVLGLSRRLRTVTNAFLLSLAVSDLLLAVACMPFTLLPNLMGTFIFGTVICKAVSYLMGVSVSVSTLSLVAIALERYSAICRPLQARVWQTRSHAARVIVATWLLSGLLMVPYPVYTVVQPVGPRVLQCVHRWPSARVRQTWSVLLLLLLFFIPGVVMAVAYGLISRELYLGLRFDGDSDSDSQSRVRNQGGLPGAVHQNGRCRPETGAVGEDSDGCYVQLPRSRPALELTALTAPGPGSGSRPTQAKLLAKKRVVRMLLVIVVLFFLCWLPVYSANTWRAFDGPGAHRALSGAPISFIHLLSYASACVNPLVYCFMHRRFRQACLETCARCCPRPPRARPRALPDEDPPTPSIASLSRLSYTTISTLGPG
Kind of test: fluorescence polarization kinetic assay, CCK2R WT. In kind it is binding. On the procedure: (§1) Cells were grown either in Ham-F12 medium supplemented with 5% Fetal Clone II or DMEM supplemented with 10% Fetal Clone II with 1% penicillin-streptomycin, 4 mM glutamine mixture in a humidified atmosphere containing 5% CO2 at 37°C.
(§2) This was done in the absence or presence of the non-hydrolyzable GTP analogue, GppNHp, at 10 μM concentration.
For orientation: In fluorescence polarisation assays a small probe gives low polarisation when free and higher when bound to something large.

A further test concerns the target T2, SRD15-CCK1R cells (Homo sapiens, UniProt P32238).
T2 construct: expressed in transfected cells; host or cells: SRD15 cells (genetically modified CHO cells with elevated membrane cholesterol)
T2 sequence (P32238 1-428): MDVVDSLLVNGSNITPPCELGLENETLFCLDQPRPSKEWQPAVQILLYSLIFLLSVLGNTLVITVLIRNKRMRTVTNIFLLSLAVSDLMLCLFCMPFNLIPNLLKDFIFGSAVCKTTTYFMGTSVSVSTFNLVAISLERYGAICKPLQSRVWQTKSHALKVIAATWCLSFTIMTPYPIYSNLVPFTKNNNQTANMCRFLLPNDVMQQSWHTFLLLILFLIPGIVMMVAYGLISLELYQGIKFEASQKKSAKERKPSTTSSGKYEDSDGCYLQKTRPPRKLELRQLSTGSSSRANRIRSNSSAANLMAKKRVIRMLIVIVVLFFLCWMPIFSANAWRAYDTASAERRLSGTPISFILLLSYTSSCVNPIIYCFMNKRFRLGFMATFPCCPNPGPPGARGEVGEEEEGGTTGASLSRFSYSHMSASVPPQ
Nature of the test: fluorescence polarization kinetic assay, SRD15-CCK1R cells. Format: binding. The settings on record: vs WT CCK1R. On the procedure:
as §1, §2

Test [1] deals with T3, CCK1R(sterol 7M) (Homo sapiens, UniProt P32238, F130L/G141S/I216L/I223V/L219F/M226A/S136A).
T3 construct: expressed in transfected cells
T3 sequence (P32238 1-428 F130L/S136A/G141S/I216L/L219F/I223V/M226A): T2 sequence (P32238 1-428) with F130L, S136A, G141S, I216L, L219F, I223V, M226A
Kind of test: fluorescence polarization kinetic assay, CCK1R(sterol 7M). Format: binding. On the procedure:
as §1, §2

The target in test [2] is T4, CCK1R(Y140A) (Homo sapiens, UniProt P32238, Y140A).
T4 construct: expressed in transfected cells; some KO cells re-transfected with Galphaq or Galpha11), receptor-enriched membranes
T4 sequence (P32238 1-428 Y140A): T2 sequence (P32238 1-428) with Y140A
Kind of test: fluorescence polarization kinetic assay, CCK1R(Y140A). In kind it is binding. The method, then: as §1, §2

The next test addresses T5, CCK2R(sterol 7M) (Homo sapiens, UniProt P32239, A149S/A235M/F228L/L143F/L225I/S154G/V232I).
T5 construct: expressed in transfected cells
T5 sequence (P32239 1-447 L143F/A149S/S154G/L225I/F228L/V232I/A235M): T1 sequence (P32239 1-447) with L143F, A149S, S154G, L225I, F228L, V232I, A235M
Nature of the test: fluorescence polarization kinetic assay, CCK2R(sterol 7M). To be noted: vs CCK2R. Format: binding. On the procedure: as §1, §2

A further test relates to CCK2R. The settings on record: CNBr fragment; ref [28]; cited from earlier work.
For the next test, the system named is WT CCK1R. The settings on record: large glycosylated CNBr fragment; ref [28],[31]; cited from earlier work.
Test [3] deals with CCK1R(sterol 7M). Kind of test: photoaffinity labeling, CCK1R(sterol 7M). To be noted: CNBr cleavage, 10% NuPAGE gel. In kind it is binding, human. The method, then: (§3) After incubation, contents were transferred to a siliconized glass tube and exposed to UV irradiation for 30 min at 4°C with 3,500-Å lamps in a Rayonet photochemical reactor (Southern New England Ultraviolet, Hamden, Connecticut). After photolysis, membrane suspensions were centrifuged at 25,000×g for 5 min and washed twice with ice-cold medium and then resuspended in 30 μl of SDS sample buffer prior to separation on 10% SDS-polyacrylamide gels. Gels were dried and radiolabeled bands were visualized by autoradiography. The apparent molecular weight of radiolabeled receptor fragments was determined from the mobility of Prosieve color protein standards (Cambrex, Rockland, Maine). Receptor radiolabeled bands were excised from the polyacrylamide gel, eluted, and lyophilized, then precipitated with ethanol. Radiochemically pure receptor suspension was cleaved with 2.5 mg of CNBr in 70% formic acid, as described previously. The cleaved receptor products were washed, dried, and resolve in 10% NuPAGE gel with MES running buffer (Invitrogen, Carlsbad, California). The labeled products were identified by autoradiography.

Test [4] has as its system CCK1R(Y140A). Nature of the test: photoaffinity labeling, CCK1R(Y140A). In kind it is binding, human. To be noted: CNBr cleavage, 10% NuPAGE gel. The method, then: as §3

Regarding `CCCC[C@H](NC(=O)[C@H](Cc1ccc(OS(=O)(=O)O)cc1)NC(=O)[C@H](CC(=O)O)NC(=O)CNC(=O)c1ccc(-c2c3ccc(=N)c(S(=O)(=O)O)c-3oc3c(S(=O)(=O)O)c(N)ccc23)c(C(=O)O)c1)C(=O)NCC(=O)N[C@@H](Cc1c[nH]c2ccccc12)C(=O)N[C@@H](CCCC)C(=O)N[C@@H](CC(=O)O)C(=O)N[C@@H](Cc1ccccc1)C(N)=O` [alexa^488-Gly-[(Nle^28,31)CCK-26-33]], the “ligand dissociation rate, Gq or G11 reintroduced” value on CCK2R WT (Gq/11 KO cells) is “reintroduction of either Gq or G11 reversed the increased ligand dissociation rate”. The “rate of CCK dissociation (off rate)” value at CCK2R WT (vs WT CCK1R) is listed as “slower at WT CCK2R relative to WT CCK1R”; at SRD15-CCK1R cells, “significantly slower”; on CCK1R(Y140A) [2] (vs WT CCK1R) it was “significantly slower”. Besides, the “kinetics in Gq/11 KO cells” value on CCK1R(sterol 7M) [1] (absence of Gq/11 proteins) was “not altered by absence of Gq/11 proteins”. In addition, the off rate result at CCK1R(sterol 7M) [1] (vs CCK1R and CCK1R(Y140A)) is “intermediate between that of CCK1R and CCK1R(Y140A)”. For the same molecule, the “off rate, Gq or G11 transfected” value at CCK1R(Y140A) [2] (Gq/11 KO cells) was “transfection of Gq, but not G11, reversed the higher off rate”. In addition, the ligand dissociation entry at CCK2R(sterol 7M) is “significantly faster ligand dissociation than CCK2R”.

Regarding “(^125I-des-amino-Tyr)-Gly-[(Nle^28,31)CCK(26–32)]-Bpa^33”, the “site of covalent labeling” value with CCK2R was “Thr119”; in the test on WT CCK1R, “Trp39”. The photoaffinity labeling pattern entry in the test with CCK1R(sterol 7M) [3] is “the same as previously demonstrated for WT CCK1R”; in the test with CCK1R(Y140A) [4] it was “labeling of a much smaller and non-glycosylated fragment of the receptor”.
